Assay results from patent US4293489A, “Derivatives of A-30912A nucleus” (Eli Lilly and Company, priority 1980, dated 1981).
Starred links: 1 amine or outer side, 2 acyl side, 3 side chain; linkers in the order of their positions; H or OH if unused. Positions of bridges follow the written chain, without caps; N, C: chain ends. Non-standard residues stand in square brackets, D forms with d. Residues, ends and D or L forms follow the SMILES beside them. *: point of attachment. Orn(4R-OH,5R-OH) = O=C([C@H](C[C@@H](O)[C@@H](O)N[*:3])N[*:1])[*:2]; hTyr(3S-OH,4S-OH) = N[C@H](C(=O)O)[C@H](O)[C@@H](O)c1ccc(O)cc1; Benzoyl(4-OC10H21) = CCCCCCCCCCOc1ccc(C(=O)*)cc1; Pro(3S-OH,4S-Me) = C[C@H]1CN[C@H](C(=O)O)[C@H]1O; Benzoyl(4-octyloxy) = CCCCCCCCOc1ccc(C(=O)*)cc1; X25 = CCCCCCCCCCOc1ccc(OCC(=O)*)cc1; Hyp = O=C(O)[C@@H]1C[C@@H](O)CN1; X29 = CCCCCCCOc1ccc(CCC(=O)*)cc1; X6 = CCCCCCCCCCSc1ccc(C(=O)*)cc1; X30 = CCCCCCCCOc1ccc(C(=O)*)cn1; X26 = CCCCCOc1ccc(CCC(=O)*)cc1; X7 = CCCCCCCCSc1ccc(C(=O)*)cc1

What was measured:
[1] = tested on: Trychophyton mentagrophyes #6; assay: Agar plate disc diffusion test, MIC per disc; type: cell-based, Trichophyton mentagrophytes; conditions: 0.1M sodium borate, pH 7.5, 24 hours, 30° C., * measurable zones with regrowth of organism around disc
Protocol: (§1) Tables 10 and 11 give the results of the testing in vitro of the compounds of Examples 3 and 4 by agar-plate disc-diffusion methods. In Table 10 activity is measured by the size (diameter in mm) of the observed zone of inhibition of the microorganism produced by the test compound. In Table 11, activity is measured by the minimal inhibitory concentration (MIC) of the substance (μg/disc) required to inhibit growth of the test organism. Table 12 gives the results of the testing in vitro of the p-(n-octyloxy)benzoyl derivative of A30912A nucleus [Formula III, R^1 is p-(n-octyloxy)benzoyl] against five strains of Candida albicans by the agar dilution method. In Table 12 activity is measured by the minimal inhibitory concentration (MIC) of the substance (μg/ml) required to inhibit the test organism.
(§2) ^(a) Compounds were suspended in 0.1M sodium borate solution, pH 7.5.
(§3) The compounds were tested at 20 μg/disc at top level and at twofold
(§4) dilutions until end points were reached. Incubation: 24 hours; 30°
*Measurable zones of inhibition with regrowth of organism around disc.

Candida albicans A-26 = assay: Agar plate disc diffusion test, MIC per disc; type: cell-based; conditions: 0.1M sodium borate, pH 7.5, 24 hours, 30° C.
Protocol: as §1, §2, §3, §4

SMILES	MIC [1]	MIC (Candida albicans A-26)
CCCCCCCCCCOc1ccc(OCC(=O)N[C@H]2C[C@@H](O)[C@@H](O)NC(=O)[C@@H]3[C@@H](O)[C@@H](C)CN3C(=O)[C@H]([C@@H](C)O)NC(=O)[C@H]([C@H](O)[C@@H](O)c3ccc(O)cc3)NC(=O)[C@@H]3C[C@@H](O)CN3C(=O)[C@H]([C@@H](C)O)NC2=O)cc1 (X25-[Orn(4R-OH,5R-OH)]T[Hyp][hTyr(3S-OH,4S-OH)]T[Pro(3S-OH,4S-Me)]; lactam 1-C)	< 0.156 μg/disc	0.156 μg/disc
CCCCCOc1ccc(CCC(=O)N[C@H]2C[C@@H](O)[C@@H](O)NC(=O)[C@@H]3[C@@H](O)[C@@H](C)CN3C(=O)[C@H]([C@@H](C)O)NC(=O)[C@H]([C@H](O)[C@@H](O)c3ccc(O)cc3)NC(=O)[C@@H]3C[C@@H](O)CN3C(=O)[C@H]([C@@H](C)O)NC2=O)cc1 (X26-[Orn(4R-OH,5R-OH)]T[Hyp][hTyr(3S-OH,4S-OH)]T[Pro(3S-OH,4S-Me)]; lactam 1-C)	0.156 μg/disc	5 μg/disc
CCCCCCCOc1ccc(CCC(=O)N[C@H]2C[C@@H](O)[C@@H](O)NC(=O)[C@@H]3[C@@H](O)[C@@H](C)CN3C(=O)[C@H]([C@@H](C)O)NC(=O)[C@H]([C@H](O)[C@@H](O)c3ccc(O)cc3)NC(=O)[C@@H]3C[C@@H](O)CN3C(=O)[C@H]([C@@H](C)O)NC2=O)cc1 (X29-[Orn(4R-OH,5R-OH)]T[Hyp][hTyr(3S-OH,4S-OH)]T[Pro(3S-OH,4S-Me)]; lactam 1-C)	0.156 μg/disc	0.625 μg/disc
CCCCCCCCOc1ccc(C(=O)N[C@H]2C[C@@H](O)[C@@H](O)NC(=O)[C@@H]3[C@@H](O)[C@@H](C)CN3C(=O)[C@H]([C@@H](C)O)NC(=O)[C@H]([C@H](O)[C@@H](O)c3ccc(O)cc3)NC(=O)[C@@H]3C[C@@H](O)CN3C(=O)[C@H]([C@@H](C)O)NC2=O)cn1 (X30-[Orn(4R-OH,5R-OH)]T[Hyp][hTyr(3S-OH,4S-OH)]T[Pro(3S-OH,4S-Me)]; lactam 1-C)	2.5 μg/disc	80 μg/disc
CCCCCCCCOc1ccc(C(=O)N[C@H]2C[C@@H](O)[C@@H](O)NC(=O)[C@@H]3[C@@H](O)[C@@H](C)CN3C(=O)[C@H]([C@@H](C)O)NC(=O)[C@H]([C@H](O)[C@@H](O)c3ccc(O)cc3)NC(=O)[C@@H]3C[C@@H](O)CN3C(=O)[C@H]([C@@H](C)O)NC2=O)cc1 [drawing 115] ({Benzoyl(4-octyloxy)}-[Orn(4R-OH,5R-OH)]T[Hyp][hTyr(3S-OH,4S-OH)]T[Pro(3S-OH,4S-Me)]; lactam 1-C)	< 0.039 μg/disc	0.156 μg/disc
CCCCCCCCCCOc1ccc(C(=O)N[C@H]2C[C@@H](O)[C@@H](O)NC(=O)[C@@H]3[C@@H](O)[C@@H](C)CN3C(=O)[C@H]([C@@H](C)O)NC(=O)[C@H]([C@H](O)[C@@H](O)c3ccc(O)cc3)NC(=O)[C@@H]3C[C@@H](O)CN3C(=O)[C@H]([C@@H](C)O)NC2=O)cc1 [drawing 116] ({Benzoyl(4-OC10H21)}-[Orn(4R-OH,5R-OH)]T[Hyp][hTyr(3S-OH,4S-OH)]T[Pro(3S-OH,4S-Me)]; lactam 1-C)	< 0.078 μg/disc	0.156 μg/disc
CCCCCCCCSc1ccc(C(=O)N[C@H]2C[C@@H](O)[C@@H](O)NC(=O)[C@@H]3[C@@H](O)[C@@H](C)CN3C(=O)[C@H]([C@@H](C)O)NC(=O)[C@H]([C@H](O)[C@@H](O)c3ccc(O)cc3)NC(=O)[C@@H]3C[C@@H](O)CN3C(=O)[C@H]([C@@H](C)O)NC2=O)cc1 [drawing 119] (X7-[Orn(4R-OH,5R-OH)]T[Hyp][hTyr(3S-OH,4S-OH)]T[Pro(3S-OH,4S-Me)]; lactam 1-C)	< 0.039 μg/disc	0.312 μg/disc
CCCCCCCCCCSc1ccc(C(=O)N[C@H]2C[C@@H](O)[C@@H](O)NC(=O)[C@@H]3[C@@H](O)[C@@H](C)CN3C(=O)[C@H]([C@@H](C)O)NC(=O)[C@H]([C@H](O)[C@@H](O)c3ccc(O)cc3)NC(=O)[C@@H]3C[C@@H](O)CN3C(=O)[C@H]([C@@H](C)O)NC2=O)cc1 [drawing 120] (X6-[Orn(4R-OH,5R-OH)]T[Hyp][hTyr(3S-OH,4S-OH)]T[Pro(3S-OH,4S-Me)]; lactam 1-C)	0.039 μg/disc	0.156 μg/disc
